ChEMBL document CHEMBL3351528, “Targeting dopamine D3 and serotonin 5-HT1A and 5-HT2A receptors for developing effective antipsychotics: synthesis, biological characterization, and behavioral studies” (J Med Chem, 2014)
Calls of active or inactive are those of the source. No cut-off for these calls is given here.

Tests used:
Mus musculus [1] = experiment: Anxiolytic activity in mouse at 10 mg/kg, ip dosed 30 mins before test by marble burying method; type: functional, organism-based; design: dose 10 mg/kg
Mus musculus [2] = experiment: Effect on spontaneous locomotor activity in mouse at 10 mg/kg, ip; type: ADME, organism-based; design: dose 10 mg/kg, route intraperitoneal; settings: in vivo
Mus musculus [3] = experiment: Toxicity in mouse assessed as induction of memory impairment by measuring […] to enter dark compartment at 10 mg/kg, po administered 30 mins before training by passive avoidance test; type: organism-based; design: dose 10 mg/kg, route oral; settings: in vivo, 0.5 h
Mus musculus [4] = experiment: Antipsychotic-like activity in NMRI mouse assessed as reduction in […]-induced locomotor activity at 1 mg/kg, sc dosed 15 to 30 mins before administration of methamphetamine measured for 60 mins; type: functional, organism-based; design: dose 1 mg/kg
Mus musculus [5] = species on record: Mus musculus; settings: in vivo, sc, 0.5 h
Description: Effect on spontaneous exploratory locomotor activity in sc dosed NMRI mouse measured for 30 mins with activity counts each 5 mins

Mus musculus [6] = species on record: Mus musculus; experiment: animal or person; settings: NMRI, sc
Description: Antipsychotic-like activity in sc dosed NMRI mouse assessed as reduction in methamphetamine-induced locomotor activity dosed 15 to 30 mins before administration of methamphetamine measured for 60 mins

Mus musculus [7] = species on record: Mus musculus; experiment: animal or person; settings: NMRI, sc; remark: listed apart in the source
Description: Antipsychotic-like activity in sc dosed NMRI mouse assessed as reduction in PCP-induced locomotor activity dosed 15 to 30 mins before administration of methamphetamine measured for 60 mins

Rattus norvegicus [8] = experiment: Reduction in blood pressure in anaesthetized rat at 10 mg/kg, iv; type: functional, organism-based; design: dose 10 mg/kg
Rattus norvegicus [9] = experiment: Increase in heart rate in anaesthetized rat at 10 mg/kg, iv; type: functional, organism-based; design: dose 10 mg/kg
D(3) dopamine receptor [10] = target: T1, D(3) dopamine receptor (Homo sapiens, UniProt P35462); experiment: Agonist activity at human dopamine D3 receptor expressed in CHO-K1 cells by [35S]GTPgammaS binding assay relative to dopamine; type: functional, cell-based
T1 sequence (P35462 whole entry): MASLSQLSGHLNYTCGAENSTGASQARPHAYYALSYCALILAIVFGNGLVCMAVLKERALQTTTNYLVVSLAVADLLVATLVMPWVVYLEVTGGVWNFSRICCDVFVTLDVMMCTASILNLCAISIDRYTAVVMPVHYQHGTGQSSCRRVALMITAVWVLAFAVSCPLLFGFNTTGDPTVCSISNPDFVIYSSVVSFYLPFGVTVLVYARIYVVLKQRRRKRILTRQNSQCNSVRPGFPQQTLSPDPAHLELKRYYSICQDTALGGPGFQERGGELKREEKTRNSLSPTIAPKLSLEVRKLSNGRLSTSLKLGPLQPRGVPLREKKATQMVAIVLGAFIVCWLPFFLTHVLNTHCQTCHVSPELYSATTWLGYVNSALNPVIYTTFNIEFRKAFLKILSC

D(3) dopamine receptor [11] = target: T1, D(3) dopamine receptor; experiment: Antagonist activity at human dopamine D3 receptor expressed in CHO-K1 cells assessed as reduction in dopamine-induced response by [35S]GTPgammaS binding assay relative to control; type: functional, cell-based; settings: concentration not given here
[12] = target: T2, 5-hydroxytryptamine receptor 1A (Homo sapiens) (UniProt P08908); experiment: Agonist activity at human 5HT1A receptor (unknown origin) expressed in CHO cells by [35S]GTPgammaS binding assay relative to 5-HT; type: functional, cell-based
T2 sequence (whole entry): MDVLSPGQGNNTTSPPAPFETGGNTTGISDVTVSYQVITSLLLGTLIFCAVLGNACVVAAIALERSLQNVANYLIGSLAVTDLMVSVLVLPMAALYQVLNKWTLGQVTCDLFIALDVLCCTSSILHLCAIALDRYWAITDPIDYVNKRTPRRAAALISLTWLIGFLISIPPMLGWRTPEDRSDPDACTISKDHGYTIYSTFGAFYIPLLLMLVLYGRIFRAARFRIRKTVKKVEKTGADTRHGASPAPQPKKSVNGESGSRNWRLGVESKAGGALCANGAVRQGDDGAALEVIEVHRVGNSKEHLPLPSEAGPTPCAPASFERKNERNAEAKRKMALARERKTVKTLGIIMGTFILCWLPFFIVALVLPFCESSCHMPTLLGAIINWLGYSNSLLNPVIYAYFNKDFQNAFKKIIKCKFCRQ

[13] = target: T2, 5-hydroxytryptamine receptor 1A (Homo sapiens); experiment: Antagonist activity at human 5HT1A receptor (unknown origin) expressed in CHO cells reduction in 5-HT-induced response by [35S]GTPgammaS binding assay; type: functional, cell-based; settings: concentration not given here
[14] = target: 5-hydroxytryptamine receptor 2A (Rattus norvegicus) (UniProt P14842); experiment: Antagonist activity at 5HT2A receptor in rat aortic rings assessed as reduction in 5-HT-induced contraction relative to control; settings: concentration not given here
Sequence of 5-hydroxytryptamine receptor 2A (Rattus norvegicus) (P14842 whole entry): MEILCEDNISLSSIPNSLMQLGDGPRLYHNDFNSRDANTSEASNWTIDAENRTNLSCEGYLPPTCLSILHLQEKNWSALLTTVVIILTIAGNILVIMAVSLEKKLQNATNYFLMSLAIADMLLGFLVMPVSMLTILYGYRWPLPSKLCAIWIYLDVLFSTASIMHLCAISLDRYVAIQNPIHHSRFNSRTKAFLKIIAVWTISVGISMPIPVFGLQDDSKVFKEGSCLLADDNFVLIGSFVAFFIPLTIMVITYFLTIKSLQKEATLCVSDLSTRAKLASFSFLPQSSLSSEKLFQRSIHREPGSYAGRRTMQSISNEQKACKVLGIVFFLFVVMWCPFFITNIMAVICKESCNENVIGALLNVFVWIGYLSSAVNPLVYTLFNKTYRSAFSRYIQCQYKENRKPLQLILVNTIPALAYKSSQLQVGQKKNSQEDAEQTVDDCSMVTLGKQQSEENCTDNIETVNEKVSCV

Rattus norvegicus [15] = experiment: Induction of c-Fos in ip dosed rat nucleus accumbens; type: functional, organism-based
Rattus norvegicus [16] = experiment: Induction of c-Fos in rat nucleus accumbens shell region at 3 to 30 mg/kg, ip; type: functional, organism-based
Rattus norvegicus [17] = experiment: Induction of c-Fos in rat nucleus accumbens core region at 10 mg/kg, ip; type: functional, organism-based; design: dose 10 mg/kg
Rattus norvegicus [18] = experiment: Induction of c-Fos in rat nucleus accumbens core region at 30 mg/kg, ip; type: functional, organism-based; design: dose 30 mg/kg
Rattus norvegicus [19] = experiment: Induction of c-Fos in rat dorsolateral striatum region at 30 mg/kg, ip; type: functional, organism-based; design: dose 30 mg/kg
Mus musculus [20] = experiment: Anti-psychotic activity in mouse assessed as amelioration of PCP-induced disruption of prepulse inhibition at 3 mg/kg, po; type: functional, organism-based; design: dose 3 mg/kg
Mus musculus [21] = experiment: Anti-psychotic activity in mouse assessed as amelioration of PCP-induced disruption of prepulse inhibition at 30 mg/kg, po; type: functional, organism-based; design: dose 30 mg/kg
Mus musculus [22] = experiment: Increase in prepulse inhibition in mouse at 30 mg/kg, po dosed 30 mins before testing; type: functional, organism-based; design: dose 30 mg/kg
Mus musculus [23] = experiment: Anxiolytic activity in orally dosed mouse dosed 30 mins before test by marble burying method; type: functional, organism-based
Rattus norvegicus [24] = experiment: Increase in dopamine release in Wistar rat medial prefrontal cortex at 10 mg/kg, sc measured for 90 mins administered as single dose by microdialysis method; type: functional, organism-based; design: dose 10 mg/kg
Rattus norvegicus [25] = experiment: Increase in dopamine release in Wistar rat nucleus accumbens at 10 mg/kg, sc measured during 0 to 90 mins administered as single dose by microdialysis method; type: functional, organism-based; design: dose 10 mg/kg
D(2) dopamine receptor = D(2) dopamine receptor (Homo sapiens, UniProt P14416)
Sequence of D(2) dopamine receptor (P14416 whole entry): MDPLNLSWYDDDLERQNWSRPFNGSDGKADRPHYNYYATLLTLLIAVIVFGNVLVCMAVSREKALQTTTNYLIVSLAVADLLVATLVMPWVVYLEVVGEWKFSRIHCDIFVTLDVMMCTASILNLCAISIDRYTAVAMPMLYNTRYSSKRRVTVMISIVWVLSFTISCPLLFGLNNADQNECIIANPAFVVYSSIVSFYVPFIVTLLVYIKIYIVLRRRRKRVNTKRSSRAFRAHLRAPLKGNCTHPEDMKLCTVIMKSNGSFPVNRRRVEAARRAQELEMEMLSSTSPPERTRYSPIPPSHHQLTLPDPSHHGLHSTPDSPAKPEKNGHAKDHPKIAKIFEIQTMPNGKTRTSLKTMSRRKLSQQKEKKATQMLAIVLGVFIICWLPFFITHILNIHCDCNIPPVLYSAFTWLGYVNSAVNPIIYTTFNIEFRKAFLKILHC
Description: Binding affinity to dopamine D2 receptor (unknown origin)

[26] = target: 5-hydroxytryptamine receptor 2A (Homo sapiens, UniProt P28223)
Sequence of 5-hydroxytryptamine receptor 2A (P28223 whole entry): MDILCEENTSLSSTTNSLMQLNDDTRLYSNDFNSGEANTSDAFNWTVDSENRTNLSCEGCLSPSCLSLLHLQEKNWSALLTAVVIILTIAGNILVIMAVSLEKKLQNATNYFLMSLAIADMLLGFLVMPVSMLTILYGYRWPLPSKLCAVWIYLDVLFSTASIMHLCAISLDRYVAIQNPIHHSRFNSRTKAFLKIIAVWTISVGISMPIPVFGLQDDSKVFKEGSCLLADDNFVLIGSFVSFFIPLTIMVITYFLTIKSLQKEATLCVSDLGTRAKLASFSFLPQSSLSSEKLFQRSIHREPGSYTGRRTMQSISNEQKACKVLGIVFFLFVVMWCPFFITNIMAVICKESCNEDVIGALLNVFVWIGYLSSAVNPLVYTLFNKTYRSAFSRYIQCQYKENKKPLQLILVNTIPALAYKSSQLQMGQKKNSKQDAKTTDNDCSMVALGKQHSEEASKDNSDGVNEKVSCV
Description: Binding affinity to 5HT2A receptor (unknown origin)

Mus musculus [27] = experiment: Antipsychotic-like activity in sc dosed NMRI mouse assessed as reduction in MK801-induced locomotor activity dosed 15 to 30 mins before administration of MK801 measured for 60 mins; type: functional; settings: read-out: MED
Mus musculus [28] = experiment: Toxicity in NMRI mouse assessed as induction of tremors at 10 mg/kg, sc dosed 30 mins before test; type: organism-based; design: dose 10 mg/kg, route subcutaneous; settings: in vivo, 0.5 h
D(3) dopamine receptor [29] = target: T1, D(3) dopamine receptor
Description: Binding affinity to dopamine D3 receptor (unknown origin)

[30] = target: T3, 5-hydroxytryptamine receptor 1A (Homo sapiens, UniProt P08908)
T3 sequence (P08908 whole entry): T2 sequence (whole entry)
Description: Binding affinity to 5HT1A receptor (unknown origin)

[31] = target: T4, 5-hydroxytryptamine receptor 2C (Homo sapiens, UniProt P28335)
T4 sequence (P28335 whole entry): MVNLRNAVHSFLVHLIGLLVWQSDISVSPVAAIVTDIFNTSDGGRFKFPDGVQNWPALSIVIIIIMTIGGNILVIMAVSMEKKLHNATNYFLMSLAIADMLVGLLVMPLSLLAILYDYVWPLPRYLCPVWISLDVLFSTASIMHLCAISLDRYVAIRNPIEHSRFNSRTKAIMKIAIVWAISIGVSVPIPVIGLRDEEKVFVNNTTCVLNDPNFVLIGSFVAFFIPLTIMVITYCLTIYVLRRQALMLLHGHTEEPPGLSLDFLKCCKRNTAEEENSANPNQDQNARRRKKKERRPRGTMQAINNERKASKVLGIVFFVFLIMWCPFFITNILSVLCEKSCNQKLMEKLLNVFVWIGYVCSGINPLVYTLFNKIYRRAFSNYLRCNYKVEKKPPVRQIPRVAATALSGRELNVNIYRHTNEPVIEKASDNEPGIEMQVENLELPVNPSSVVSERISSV
Description: Binding affinity to 5HT2C receptor (unknown origin)

CNC1=Nc2ccc(Cl)cc2C(c2ccccc2)=[N+]([O-])C1.Cl [CHLORDIAZEPOXIDE HYDROCHLORIDE]
Activity (Mus musculus [1]): Active | Activity (Mus musculus [2]): Non-toxic

CN1CCN(C2=Nc3cc(Cl)ccc3Nc3ccccc32)CC1 [CLOZAPINE]
Activity (Mus musculus [3]): Toxic | Activity (Mus musculus [4]): Active | ED50 (Mus musculus [5]): 2.4 mg/kg | ED50 (Mus musculus [6]): 1.1 mg/kg | ED50 (Mus musculus [7]): 2.5 mg/kg

O=C(NCCCCN1CCN(c2ccccc2)CC1)c1ccc2ncccc2c1
Activity (Rattus norvegicus [8]): Active | Activity (Rattus norvegicus [9]): Active | Activity (D(3) dopamine receptor [10]): 21% | inhibition (D(3) dopamine receptor [11]): 69% | Activity [12]: 66% | inhibition [13]: 19% | inhibition [14]: 94% | Activity (Rattus norvegicus [15]): Dose-dependent effect | Activity (Rattus norvegicus [16]): Active | Activity (Rattus norvegicus [17]): inactive | Activity (Rattus norvegicus [18]): Active | Activity (Rattus norvegicus [19]): Active | Activity (Mus musculus [20]): Active | Activity (Mus musculus [21]): inactive | Activity (Mus musculus [22]): Active | Activity (Mus musculus [23]): Dose-dependent effect | Activity (Rattus norvegicus [24]): Active | Activity (Rattus norvegicus [25]): inactive

O=C(NCCCCN1CCN(c2ccccc2)CC1)c1cc2ccccc2o1
Ki (D(2) dopamine receptor): > 1000 nM | Ki [26]: 392 nM | minimal effective dose (Mus musculus [27]): 3 mg/kg | Activity (Mus musculus [28]): Toxic | Ki (D(3) dopamine receptor [29]): 4 nM | Ki [30]: 30 nM | Ki [31]: > 1000 nM | MED (Mus musculus [5]): <= 0.3 mg kg-1 | minimal effective dose (Mus musculus [6]; read-out: MED): ≤ 1 mg/kg | minimal effective dose (Mus musculus [7]; read-out: MED): ≤ 0.3 mg/kg
